# Source: patent US20050277624A1, “Use of corticosteroids alone or in conjunction with nutritional therapy to reduce stress in animals” (priority 2004, published 2005)
# What was measured:
# [1] = Weight loss of calves during 8 h transport (Example 2); type: in vivo, crossbred calves (cattle); settings: calves ~800 lb, dexamethasone i.m. 0.61 mg per 50 lb, NT 1 kg/animal 24 h prior
# Source text: The study in Example 1 was repeated with the addition of a nutritional supplement treatment group. The calves were raised at the Agriculture and Agri-Food Canada Lacombe Research Centre (Lacombe, Alberta, Canada) in accordance with standard operating procedures representative of the cattle industry. The breed, sex and weight of the calves were similar to those used in Example 1. Crossbred calves weighing approximately 800 lb (363 kg) on average were used.
# Twenty-four hours prior to transport, the calves were assigned to the nutritional supplement groups and were offered 1 kg/animal of nutritional supplement or a “receiver calf” preparation (Supplement 1(d) as described in U.S. Pat. Nos. 5,505,968 and 5,728,675 to Schaefer et al. with differences being the selection of flavoring, form of an extruded pellet, and carrier being alfalfa) along with their regular feed ration (cereal grain silage). All calves in all treatments were kept on normal feed and water rations prior to transport.
# Weights of all animals were recorded pre- and post-transport and metabolic activity was assessed by infrared thermographic analyses of the eye region. […] The animals were then loaded onto a commercial transport carrier and transported for 8 h prior to being offloaded, re-weighed, re-scanned with infrared and re-sampled for cortisol. […]
# [2] = Weight loss of calves during 10 h transport (Example 1); type: in vivo, crossbred calves (cattle); settings: calves ~600 lb, dexamethasone i.m. 2 mg per 50 lb body weight
# Source text: Forty head of crossbred calves, both steers and heifers, and weighing approximately 600 lb (272 kg) on average were used. The calves were raised at the Agriculture and Agri-Food Canada Lacombe Research Centre (Lacombe, Alberta, Canada) in accordance with standard operating procedures representative of the cattle industry. The calves were randomly divided into two treatment groups designated as control (n=20) and dexamethasone-treated (n=20) and kept on standard feed (cereal grain silage) and water rations prior to transport.
# Weights of all animals were recorded pre- and post-transport, metabolic activity was assessed by infrared thermographic analyses (IRT) of the eye region, and a salivary swab collection made for cortisol measurement.
# The animals were subsequently loaded onto a commercial transport and transported for 10 h prior to being off loaded at the Agriculture and Agri-Food Canada Kamloops Research Centre (Kamloops, British Columbia, Canada). On arrival, the calves were again weighed, infrared images captured and a salivary swab collected. The animals were held overnight in pens with ad libitum access to water and cereal grain silage, and were again monitored for weight, thermal changes and salivary cortisol the following morning.
# calves = test: Behavioural scans (lying and eating frequency) for three days following transport (Example 3); type: in vivo; settings: three day average following transport
# Source text: Corticosteroid treatment in conjunction with a nutritional supplement appears to enhance recovery from transport stress. The behavioral responses of animals were monitored following transport. Calves were allocated among five treatment groups as follows:
# For all of the above groups, ten behavioural scans lasting one minute each were completed each day (pm) for three days following transport, thereby accumulating a total of 2,280 animal observations. Frequency measures of animals lying and eating were collected. It is well known to those skilled in the art that when animals are fatigued or morbid, they tend to lie down (Kilbour et al., 1984; Agri-Food Research Council Canadian Food Inspection Agency, 2001).
structure (smiles),measurement,setting,value
C[C@@H]1C[C@H]2[C@@H]3CCC4=CC(=O)C=C[C@]4(C)[C@@]3(F)[C@@H](O)C[C@]2(C)[C@@]1(O)C(=O)CO [dexamethasone],weight loss during transport,[1]; control lost 21.5 kg,17.6 kg
same,weight loss during transport,"[1]; control lost 47.36 lb, P<0.05",38.87 lb
same,weight loss during transport,[2]; control lost 5%,3.2 % body weight
same,weight loss during transport,[2]; control lost 13.8 kg,8.7 kg
same,weight loss during transport,"[2]; control lost 30.5 lb, P<0.05",19.2 lb
same,Eating Frequency,"calves; control away 20%, control home 78%",24%
same,Lying Frequency,"calves; control away 97%, control home 23%",0%
